The values below come from patent publication US8778966B2, “Quinolinone derivatives as PARP and tank inhibitors” (Janssen Pharmaceutica, NV, priority 2007, dated 2014).

The target of one assay is T1, Human PARP-1 enzyme (Homo sapiens, UniProt P09874).
T1 construct: purchased Trevigen
Kind of assay: In vitro Scintillation Proximity Assay (SPA) for PARP-1 inhibitory activity. The assay is classed as biochemical. Particulars: read-out: in vitro SPA assay PARP-1 pIC50 (converted). The method in brief: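 SPA assay: nicked-DNA-activated PARP-1 (0.1–0.2 μg/ml) ADP-ribosylates biotinylated histones (2 μg/ml) using [3H]-NAD+, 20 min at RT in Tris pH 8/DTT/MgCl2, stopped with 2 mM NAD+. Blank-subtracted cpm expressed as % control; IC50 by linear interpolation, reported as pIC50 (10−5 to 3×10−9 M tested).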

The test system of the next assay is HCT116 cells. Kind of assay: Mitotic arrest assay on HCT116 cells (phospho-histone H3 Ser10). It is filed as cell-based, human. To be noted: Homo sapiens, HCT-116, HCT116 cells; lowest active dose; read-out: Mitotic arrest HCT116 LAD (converted). The method in brief: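 Seeded overnight, then compound-treated 6 h at 37 °C (≤0.1% DMSO); fixed, stained with Alexa Fluor 488 anti-phospho-H3 (Ser10) plus Hoechst 33342, imaged on InCell Analyzer 1000. Blank-subtracted signal divided by SD (sigma), triplicate; value is lowest dose giving sigma >5 (LAD).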

T1 sequence (P09874 whole entry): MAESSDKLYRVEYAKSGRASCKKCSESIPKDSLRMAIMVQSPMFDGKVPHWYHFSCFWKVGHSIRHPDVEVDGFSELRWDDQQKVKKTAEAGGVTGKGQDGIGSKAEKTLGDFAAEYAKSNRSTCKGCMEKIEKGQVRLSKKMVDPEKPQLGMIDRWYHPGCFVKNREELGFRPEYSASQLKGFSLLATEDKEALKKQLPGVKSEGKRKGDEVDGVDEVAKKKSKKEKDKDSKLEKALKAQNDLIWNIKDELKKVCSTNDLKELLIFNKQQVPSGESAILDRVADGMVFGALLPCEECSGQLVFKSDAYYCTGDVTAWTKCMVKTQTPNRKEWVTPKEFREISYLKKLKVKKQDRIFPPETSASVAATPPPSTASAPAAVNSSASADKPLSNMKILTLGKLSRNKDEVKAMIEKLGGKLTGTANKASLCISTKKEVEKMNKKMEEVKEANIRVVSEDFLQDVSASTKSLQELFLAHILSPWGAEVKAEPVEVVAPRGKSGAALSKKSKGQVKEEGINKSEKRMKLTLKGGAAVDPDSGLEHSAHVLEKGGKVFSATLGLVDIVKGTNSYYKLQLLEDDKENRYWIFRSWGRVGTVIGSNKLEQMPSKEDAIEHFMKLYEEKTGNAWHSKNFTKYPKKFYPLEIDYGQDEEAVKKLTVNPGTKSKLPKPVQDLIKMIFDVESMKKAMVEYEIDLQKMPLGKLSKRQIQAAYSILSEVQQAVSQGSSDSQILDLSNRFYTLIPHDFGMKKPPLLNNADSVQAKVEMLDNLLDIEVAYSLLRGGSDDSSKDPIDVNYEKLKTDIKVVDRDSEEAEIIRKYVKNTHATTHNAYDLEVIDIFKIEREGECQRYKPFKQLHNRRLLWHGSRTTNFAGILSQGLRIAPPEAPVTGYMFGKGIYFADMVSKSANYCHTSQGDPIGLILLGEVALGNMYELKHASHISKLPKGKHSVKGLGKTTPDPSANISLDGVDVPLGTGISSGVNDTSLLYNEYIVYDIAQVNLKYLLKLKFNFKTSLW

Turning to `CCc1cc2ccc(C(C)(C#N)Cc3nc(C#N)cc(OC)n3)cc2[nH]c1=O` (single isomer, unassigned) [Compound 204], the IC50 at Human PARP-1 enzyme is 39.8 nM.

Take `CCc1cc2c(OC)cc(C(C)(C#N)Cc3nc(OC)cc(OC)n3)cc2[nH]c1=O` (single isomer, unassigned) [Compound 230]: on Human PARP-1 enzyme, the IC50 was 63.1 nM. Moreover, the minimal effective concentration with HCT116 cells was 1 µM.

Turning to `CCc1cc2ccc([C@@](C)(C#N)CCOc3ccc(C#N)cc3)cc2[nH]c1=O` (single isomer, unassigned) [Compound 273], the IC50 on Human PARP-1 enzyme is 79.4 nM. For the same compound, the minimal effective concentration in the assay with HCT116 cells is 0.1 µM.

Consider `CCc1cc2ccc([C@](C)(C#N)CCOc3ccc(C#N)cc3)cc2[nH]c1=O` (single isomer, unassigned) [Compound 275], for which the IC50 at Human PARP-1 enzyme is 50.1 nM. Further, the minimal effective concentration with HCT116 cells is 10 µM.

Regarding `CCc1cc2ccc([C@](C)(C#N)Cc3cccc(/C=C/S(C)(=O)=O)c3)cc2[nH]c1=O` (single isomer, unassigned) [Compound 291], at Human PARP-1 enzyme, the IC50 is 25.1 nM. The minimal effective concentration in the assay with HCT116 cells is 0.1 µM.

In the case of `CCc1cc2ccc([C@@](C)(C#N)Cc3cccc(C#CCO)c3)cc2[nH]c1=O` (single isomer, unassigned) [Compound 295], the IC50 at Human PARP-1 enzyme was 25.1 nM. Besides, in the assay on HCT116 cells, the minimal effective concentration is 10 µM.

With `CCc1cc2ccc([C@](C)(C#N)Cc3cccc(C#CCO)c3)cc2[nH]c1=O` (single isomer, unassigned) [Compound 296], on Human PARP-1 enzyme, the IC50 was 31.6 nM. Moreover, the minimal effective concentration with HCT116 cells was 0.1 µM.

Consider `CCc1cc2ccc([C@@](C)(C#N)Cc3cc(OC)nc(C)n3)cc2[nH]c1=O` (single isomer, unassigned) [Compound 361], for which the IC50 at Human PARP-1 enzyme was 126 nM. Further, in the assay on HCT116 cells, the minimal effective concentration is 10 µM.

For the compound `CCc1cc2ccc([C@](C)(C#N)Cc3cc(OC)nc(C)n3)cc2[nH]c1=O` (single isomer, unassigned) [Compound 362], the IC50 on Human PARP-1 enzyme is 631 nM. In addition, the minimal effective concentration in the assay on HCT116 cells is 0.3 µM.

As to `Cc1cc2ccc([C@@](C)(C#N)C3CCc4ccccc43)cc2[nH]c1=O` (single isomer, unassigned) [Compound 385], the IC50 at Human PARP-1 enzyme was 100 nM. Also, in the assay with HCT116 cells, the minimal effective concentration was 10 µM.

As to `Cc1cc2ccc([C@](C)(C#N)C3CCc4ccccc43)cc2[nH]c1=O` (single isomer, unassigned) [Compound 386], the IC50 at Human PARP-1 enzyme was 126 nM. Also, in the assay with HCT116 cells, the minimal effective concentration was 0.1 µM.

As to `CCc1cc2ccc(C(C)(C#N)Cc3cc(OC)ccc3F)cc2[nH]c1=O` (centres unmarked) [Compound 171], the IC50 on Human PARP-1 enzyme is 20 nM.

Regarding `CCc1cc2ccc(C(C)(C#N)Cc3cccc(/C=N/OC)c3)cc2[nH]c1=O` (centres unmarked) [Compound 185], the IC50 on Human PARP-1 enzyme is 20 nM.

As to `CCc1cc2ccc(C(C)(C#N)Cc3cccc(OCCCC#N)c3)cc2[nH]c1=O` (centres unmarked) [Compound 194], the IC50 at Human PARP-1 enzyme is 25.1 nM.

In the case of `CCc1cc2ccc(C(C)(C#N)COCc3ccccc3)cc2[nH]c1=O` (centres unmarked) [Compound 197], the IC50 at Human PARP-1 enzyme was 100 nM.

Consider `CCc1cc2ccc(C(C)(C#N)Cc3cccc(OCCS(C)(=O)=O)c3)cc2[nH]c1=O` (centres unmarked) [Compound 201], for which the IC50 at Human PARP-1 enzyme is 25.1 nM.

For the compound `CCc1cc2ccc(C(C)(C#N)Cc3cccc(C#N)[n+]3[O-])cc2[nH]c1=O` (centres unmarked) [Compound 228], on Human PARP-1 enzyme, the IC50 is 50.1 nM.

Consider `CCc1cc2ccc(C(C)(C#N)Cc3cccc(/C=N/O)c3)cc2[nH]c1=O` (centres unmarked) [Compound 299], for which, at Human PARP-1 enzyme, the IC50 was 31.6 nM.

Regarding `CCc1cc2ccc(C(C)(C#N)Cc3cc(C#N)nc(OC)c3)cc2[nH]c1=O` (centres unmarked) [Compound 314], the IC50 at Human PARP-1 enzyme was 50.1 nM.

For the compound `CCc1cc2ccc(C(C)(C#N)Cc3cc(C#N)nc(N(C)C)c3)cc2[nH]c1=O` (centres unmarked) [Compound 325], the IC50 on Human PARP-1 enzyme was 79.4 nM.

`CCc1cc2ccc(C(C)(C#N)Cc3c4ccccc4nn3C)cc2[nH]c1=O` (centres unmarked) [Compound 347]: on Human PARP-1 enzyme, the IC50 was 158 nM.

Regarding `CCc1cc2ccc(C(C)(C#N)Cc3cc(OC)nc(OC)c3)cc2[nH]c1=O` (centres unmarked) [Compound 350], the IC50 at Human PARP-1 enzyme is 39.8 nM.
